The experiment has as its system GSH. The experiment is described as follows: Glutathione (GSH) concentration in tissues of treated mice, HPLC. Conditions: liver; for Ratio Test/con (GSH): gavage; for GSH conc.: gavage in corn oil. Format: in vivo, Female A/J mice.

As to `N#C[Se]Cc1ccc(C[Se]C#N)s1` [(2) TDMSC, thienyl-2,5-di-methylene selenocyanate], where the note is “dose 0.02 mmol/Kg body weight”, the “Ratio Test/con (GSH)” value is reported as 1.28 and the GSH conc. was determined as 4.91 ± 1.16 μmol/gm tissue weight. Besides, for the setting “dose 0.04 mmol/Kg body weight”, the “Ratio Test/con (GSH)” value is 1.20 and the GSH conc. is listed as 4.60 ± 2.13 μmol/gm tissue weight.

The values above are taken from patent US7855232B2, “Organoselenium compound for cancer chemoprevention” (LKT Laboratories, Inc., priority 2001, dated 2010).
